Key:
A2058 cells = experiment: 72-hour drug assay in A2058 1q-trisomic and 1q-disomic cells; format: cell-based, human
Source text: (§1) Following this, the cells were harvested and counted.

NCI-60 cell line panel = conditions: NCI-60 panel (Luna et al.); cited from earlier work
A2780 cells = experiment: 72-hour drug assay in A2780 1q-trisomic and 1q-disomic cells; format: cell-based, human; conditions: for sensitivity of cells harboring a trisomy of chromosome 1q compared to isogenic cells containing two copies of chromosome 1q: A2780, FIG. 6D; for sensitivity of 1q disomic cells compared to 1q trisomic cells: A2780 WT (1q trisomic) and engineered 1q disomic clones C1-C4
Source text: as §1

AGS cells = experiment: 72-hour drug assay in AGS 1q-trisomic and 1q-disomic cells; format: cell-based, human
Source text: as §1

MCF10A cells [1] = experiment: 72-hour drug assay in MCF10A 1q-trisomic and 1q-disomic cells; format: cell-based, human; conditions: FIG. 6D
Source text: as §1

DLD1 colon cancer cells = experiment: Drug sensitivity of DLD1 trisomy-1 cells and parental DLD1 cells; format: cell-based; conditions: P<0.005; t-test
Procedure: The DLD1 trisomy 1 clone was generated as previously described in ref (Vasudevan, et al., Dev. Cell. 52, 413-428.e6 (2020)). In brief, DLD1 cells were transiently treated with 1 μM AZ3146 (Selleck Chemicals; cat. no. S2731) for 24 hours, and then the drug was washed out and the cells were allowed to recover for 24 hours. Following the recovery passage, single-cell sorting was performed to isolate individual aneuploid clones. SMASH-Seq was used to identify a clone harboring a trisomy of chromosome 1.
as §1

HAP1 UCK2-knockout cells = experiment: 72-hour drug assay in UCK2-knockout HAP1 cells; format: cell-based; conditions: haploid HAP1 cell line, UCK2 deleted with CRISPR
Source text: as §1
HAP1 cells harboring a CRISPR-induced frameshift mutation in the UCK2 gene were purchased from Horizon Discovery (cat. no. HZGHC007067c006). Loss of UCK2 expression was verified by western blotting.
First, as the mechanism of many cancer drugs is poorly understood (Lin, et al., Sci. Transl. Med. 11 (2019), Lin & Sheltzer, Nat. Rev. Genet. 21, 671-682 (2020)),whether the cytotoxicity of RX-3117 and 3-deazauridine requires UCK2 expression was assessed.

MCF10A cells [2] = experiment: Cellular competition between 1q-trisomic and 1q-disomic MCF10A cells; format: cell-based, human
Procedure: For the competition experiment, two independent experiments were performed: one when cells were mixed at an 80-20 ratio and one when cells were mixed at a 90:10 ratio. Similar results were obtained in both experiments.
Whether the greater sensitivity of 1q-trisomic cells to UCK2 substrates could be used to re-direct cellular evolution away from aneuploidy and towards a disomic state with lower malignant potential was assessed (FIG. 6E). Fluorescently-labeled 1q-trisomic and 1q-disomic MCF10A cells were mixed at a ratio of 20:80 and then co-cultured the two cell populations. After nine days of growth in drug-free medium, the trisomic cells had expanded to include 75% of the culture, but when the same cell populations were grown in the presence of 500 nM 3-deazauridine, the trisomic population decreased to include only 4% of the final culture (FIG. 6F).

Row | Compound | difference in sensitivity between 1q-trisomic and 1q-disomic cells (A2058 cells) | correlation of UCK2 expression with sensitivity to the compound (NCI-60 cell line panel) | effect of ectopic overexpression of UCK2 cDNA on sensitivity to the compound (A2780 cells; 1q-disomic A2780 cells) | effect of deleting a single copy of UCK2 on sensitivity to the compound (A2780 cells; 1q-trisomic A2780 cells) | sensitivity of cells harboring a trisomy of chromosome 1q compared to isogenic cells containing two copies of chromosome 1q (A2780 cells) | sensitivity of 1q disomic cells compared to 1q trisomic cells (A2780 cells) | difference in sensitivity between 1q-trisomic and 1q-disomic cells (AGS cells) | sensitivity of cells harboring a trisomy of chromosome 1q compared to isogenic cells containing two copies of chromosome 1q (MCF10A cells [1]) | sensitivity of DLD1 trisomy-1 cells compared to the parental DLD1 cells (DLD1 colon cancer cells) | response of UCK2-knockout cells to the compound (HAP1 UCK2-knockout cells) | trisomic population in the final culture (MCF10A cells [2]; 500 nM 3-deazauridine, nine days, 1q-trisomic and 1q-disomic MCF10A mixed at 20:80, 75% in drug-free medium) | effect on outgrowth of the 1q-trisomic subpopulation (MCF10A cells [2]; trisomic and disomic MCF10A mixed at 20% to 80%, FIG. 6F)
1 | Nc1ccn([C@@H]2C(F)=C(CO)[C@@H](O)[C@H]2O)c(=O)n1 [RX-3117] | not evident | higher UCK2 expression correlates with greater sensitivity | increase sensitivity | decrease sensitivity | more sensitive | less sensitive | not evident | more sensitive | significantly more sensitive | highly resistant | – | –
2 | O=C1C=CN([C@@H]2O[C@H](CO)[C@@H](O)[C@H]2O)C(=O)C1 [3-deazauridine] | – | higher UCK2 expression correlates with greater sensitivity | – | – | more sensitive | less sensitive | – | more sensitive | – | highly resistant | 4% | prevents the outgrowth of the 1q-trisomic subpopulation
